Results as given in PubChem BioAssay AID248 (DTP/NCI, 2004).
Several values for one entry are separate records, joined by “and”; a condition that tells them apart may be missing. Equal entries are not always repeated. Toxic doses and inconclusive results are not listed. Rule as the data show it: active = T/C of 150% or more; inactive = T/C below 125%.

Tested on: L1210 leukemia ip in BDF1 mice, survival T/C
Assay: NCI In Vivo Anticancer Drug Screen. Data for tumor model L1210 Leukemia (intraperitoneal) in B6D2F1 (BDF1) mice
Details: endpoint: mean survival time, higher = longer survival
How it was run: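 Value reflects the ratio of survival in compound-treated mice to survival in vehicle-treated controls, with both groups carrying the same transplanted tumor.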

[1] = dose: 200.0 mg/kg/injection, schedule: Q01DX001 (ip), vehicle: carboxymethylcellulose (CMC)
[2] = dose: 400.0 mg/kg/injection, schedule: Q01DX001 (ip), vehicle: carboxymethylcellulose (CMC)
[3] = dose: 100.0 mg/kg/injection, schedule: Q01DX001 (ip), vehicle: saline
[4] = dose: 200.0 mg/kg/injection, schedule: Q01DX001 (ip), vehicle: saline
[5] = dose: 400.0 mg/kg/injection, schedule: Q01DX001 (ip), vehicle: saline
[6] = dose: 100.0 mg/kg/injection, schedule: Q01DX009 (ip), vehicle: Klucel (hydroxypropylcellulose) (HPC)
[7] = dose: 100.0 mg/kg/injection, schedule: Q04DX003 (ip), vehicle: Klucel (hydroxypropylcellulose) (HPC)
[8] = dose: 200.0 mg/kg/injection, schedule: Q01DX009 (ip), vehicle: Klucel (hydroxypropylcellulose) (HPC)
[9] = dose: 200.0 mg/kg/injection, schedule: Q04DX003 (ip), vehicle: Klucel (hydroxypropylcellulose) (HPC)
[10] = dose: 400.0 mg/kg/injection, schedule: Q01DX009 (ip), vehicle: Klucel (hydroxypropylcellulose) (HPC)
[11] = dose: 400.0 mg/kg/injection, schedule: Q04DX003 (ip), vehicle: Klucel (hydroxypropylcellulose) (HPC)
[12] = dose: 50.0 mg/kg/injection, schedule: Q01DX001 (ip), vehicle: saline
[13] = dose: 25.0 mg/kg/injection, schedule: Q01DX009 (ip), vehicle: Klucel (hydroxypropylcellulose) (HPC)
[14] = dose: 100.0 mg/kg/injection, schedule: Q04DX003 (ip), vehicle: saline with Tween-80
[15] = dose: 200.0 mg/kg/injection, schedule: Q04DX003 (ip), vehicle: saline with Tween-80
[16] = dose: 400.0 mg/kg/injection, schedule: Q04DX003 (ip), vehicle: saline with Tween-80
[17] = dose: 100.0 mg/kg/injection, schedule: Q01DX009 (ip), vehicle: saline

Measured: T/C

Nc1nc(SCc2ccccc2)c2ncn(C3CCCC3)c2n1
inactive: dose: 100.0 mg/kg/injection, schedule: Q01DX001 (ip), vehicle: carboxymethylcellulose (CMC) 95 % of control | [1] 95 % of control | [2] 92 % of control | dose: 700.0 mg/kg/injection, schedule: Q01DX015 (ip), vehicle: carboxymethylcellulose (CMC) 101 % of control | dose: 800.0 mg/kg/injection, schedule: Q01DX015 (ip), vehicle: carboxymethylcellulose (CMC) 101 % of control

CN1C(=O)c2c(ccc3c2OCO3)C2C(O)Cc3cc4c(cc3C21)OCO4 (stereo not drawn)
inactive: [3] 100 % of control | [4] 94 % of control | [5] 107 % of control

Nc1nc(N)c2cc(NCc3ccc(F)cc3)ccc2n1
inactive: dose: 3.13 mg/kg/injection, schedule: Q01DX009 (ip), vehicle: saline with Tween-80 90 % of control | dose: 6.25 mg/kg/injection, schedule: Q01DX009 (ip), vehicle: saline with Tween-80 92 % of control | dose: 6.25 mg/kg/injection, schedule: Q04DX003 (ip), vehicle: saline with Tween-80 100 % of control | dose: 12.5 mg/kg/injection, schedule: Q01DX009 (ip), vehicle: saline with Tween-80 97 % of control

COc1ccc(-c2ccc(OC)c(OC)c2OC)c(N)c1
inactive: dose: 65.0 mg/kg/injection, schedule: Q01DX Z (ip), vehicle: carboxymethylcellulose (CMC) 93 % of control and 121 % of control | dose: 125.0 mg/kg/injection, schedule: Q01DX Z (ip), vehicle: carboxymethylcellulose (CMC) 94 % of control and 100 % of control | dose: 250.0 mg/kg/injection, schedule: Q01DX Z (ip), vehicle: carboxymethylcellulose (CMC) 93 % of control and 86 % of control | dose: 500.0 mg/kg/injection, schedule: Q01DX Z (ip), vehicle: carboxymethylcellulose (CMC) 112 % of control

COC(=O)C1C2CC3C(OC(=O)C31)C2Br (stereo not drawn)
inactive: dose: 100.0 mg/kg/injection, schedule: Q01DX001 (ip), vehicle: Klucel (hydroxypropylcellulose) (HPC) 98 % of control | [6] 102 % of control | [7] 104 % of control | dose: 200.0 mg/kg/injection, schedule: Q01DX001 (ip), vehicle: Klucel (hydroxypropylcellulose) (HPC) 103 % of control | [8] 93 % of control | [9] 105 % of control | dose: 400.0 mg/kg/injection, schedule: Q01DX001 (ip), vehicle: Klucel (hydroxypropylcellulose) (HPC) 109 % of control | [10] 94 % of control | [11] 107 % of control

Nc1nc(N)c(N=C/C=C\c2ccc([N+](=O)[O-])cc2)c(-c2ccccc2)n1
inactive: [12] 113 % of control | [3] 107 % of control | [4] 91 % of control | [5] 103 % of control

O=C1C2C3CCC(O3)C2C(=O)N1CSc1nc2ccccc2s1 (stereo not drawn)
inactive: dose: 100.0 mg/kg/injection, schedule: Q01DX001 (ip), vehicle: saline with Tween-80 96 % of control | dose: 200.0 mg/kg/injection, schedule: Q01DX001 (ip), vehicle: saline with Tween-80 90 % of control | dose: 400.0 mg/kg/injection, schedule: Q01DX001 (ip), vehicle: saline with Tween-80 95 % of control

O=[N+]([O-])c1ccc(C(O)C=C(C(F)(F)F)C(F)(F)F)cc1 (stereo not drawn)
inactive: dose: 12.5 mg/kg/injection, schedule: Q01DX009 (ip), vehicle: Klucel (hydroxypropylcellulose) (HPC) 100 % of control | [13] 97 % of control | [7] 95 % of control | [9] 95 % of control | [11] 97 % of control

CCOC12c3cc(OC)ccc3N(S(=O)(=O)c3ccc(C)cc3)CC1C2(Br)Br (stereo not drawn)
inactive: [6] 97 % of control | [7] 100 % of control | [8] 87 % of control | [9] 100 % of control | [10] 94 % of control | [11] 91 % of control

CCN(CC)Cc1cc(Nc2cc(OC)cc3cccnc23)ccc1O
inactive: dose: 10.0 mg/kg/injection, schedule: Q01DX001 (ip), vehicle: saline 111 % of control | dose: 19.0 mg/kg/injection, schedule: Q01DX001 (ip), vehicle: saline 110 % of control | dose: 38.0 mg/kg/injection, schedule: Q01DX001 (ip), vehicle: saline 100 % of control

COc1cc(Br)c(CC(=O)c2c[nH]c3ccc(Br)cc23)cc1OC
inactive: [12] 100 % of control | [3] 94 % of control | [4] 105 % of control | [5] 94 % of control

c1ccc(C2OC2(c2ccccc2)c2ccccc2)cc1 (stereo not drawn)
inactive: [6] 95 % of control | [14] 101 % of control | [8] 102 % of control | [15] 92 % of control | [10] 102 % of control | [16] 95 % of control

c1cc2c3c(c1)CCC3CCC2 (stereo not drawn)
inactive: [14] 90 % of control | [15] 95 % of control | [16] 97 % of control

CN1N(C(O)C(Cl)(Cl)Cl)C12CCCCC2 (stereo not drawn)
inactive: [1] 101 % of control | [2] 98 % of control

NC(=O)c1cc(Cl)ccc1N
inactive: dose: 100.0 mg/kg/injection, schedule: Q01DX001 (ip), vehicle: other 97 % of control | dose: 200.0 mg/kg/injection, schedule: Q01DX001 (ip), vehicle: other 97 % of control | dose: 400.0 mg/kg/injection, schedule: Q01DX001 (ip), vehicle: other 105 % of control

CC(C)C(=O)OCP(=O)(COC(=O)C(C)C)COC(=O)C(C)C
inactive: [14] 92 % of control | [15] 97 % of control | [16] 93 % of control

c1ccc(COP(c2ccccc2)c2ccccc2)cc1
inactive: dose: 25.6 mg/kg/injection, schedule: Q04DX002 (ip), vehicle: saline with Tween-80 100 % of control | dose: 64.0 mg/kg/injection, schedule: Q04DX002 (ip), vehicle: saline with Tween-80 96 % of control | dose: 160.0 mg/kg/injection, schedule: Q04DX002 (ip), vehicle: saline with Tween-80 100 % of control | dose: 400.0 mg/kg/injection, schedule: Q04DX002 (ip), vehicle: saline with Tween-80 100 % of control

CCC12CCC(=O)C=C1CCCC2=O (stereo not drawn)
inactive: dose: 25.0 mg/kg/injection, schedule: Q01DX009 (ip), vehicle: saline 100 % of control | dose: 50.0 mg/kg/injection, schedule: Q01DX009 (ip), vehicle: saline 97 % of control | [17] 90 % of control

NS(=O)(=O)c1ccccc1C(=O)O
inactive: [17] 96 % of control | dose: 200.0 mg/kg/injection, schedule: Q01DX009 (ip), vehicle: saline 91 % of control

CC[N+](CC)(CC)CCCCC[N+](CC)(CC)CC
inactive: dose: 12.5 mg/kg/injection, schedule: Q01DX009 (ip), vehicle: water 106 % of control | dose: 25.0 mg/kg/injection, schedule: Q01DX009 (ip), vehicle: water 101 % of control | dose: 25.0 mg/kg/injection, schedule: Q04DX003 (ip), vehicle: saline with Tween-80 94 % of control | dose: 50.0 mg/kg/injection, schedule: Q04DX003 (ip), vehicle: saline with Tween-80 94 % of control

CSC(=S)N(C)C
inactive: [13] 90 % of control | dose: 50.0 mg/kg/injection, schedule: Q01DX009 (ip), vehicle: Klucel (hydroxypropylcellulose) (HPC) 108 % of control | [6] 97 % of control and 102 % of control | [7] 100 % of control | [9] 93 % of control

O=C1OC2CCCCC2c2ccccc21 (stereo not drawn)
inactive: dose: 100.0 mg/kg/injection, schedule: Q01DX009 (ip), vehicle: saline with Tween-80 98 % of control | dose: 200.0 mg/kg/injection, schedule: Q01DX009 (ip), vehicle: saline with Tween-80 103 % of control | dose: 400.0 mg/kg/injection, schedule: Q01DX009 (ip), vehicle: saline with Tween-80 103 % of control
